Assay results published in patent publication US9914732B2, “Diazabicyclo[4.3.1]decane derivatives for treatment of psychiatric disorders” (Max-Planck-Gesellschaft zur Forderung der Wissenschaften …, priority 2014, dated 2018).

How the values were obtained:
FKBP51 = molecular target: T1, FKBP51 (Homo sapiens, UniProt Q13451); assay: Fluorescence polarization (FP) assay, binding to the FK506-binding domain of FKBP51; conditions: FK506-binding domain of FKBP51 (FKBP51FK1), competition with fluorescent ligand 2b
T1 sequence (Q13451 42-130 limits assumed): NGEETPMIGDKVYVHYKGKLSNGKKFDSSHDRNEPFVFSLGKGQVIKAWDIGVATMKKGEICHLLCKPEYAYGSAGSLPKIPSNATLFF
Description: (§1) In the present invention, in vitro fluorescence polarization assays with the compounds of the general formula (I) were performed to determine the binding affinities to FKBP51 and FKBP52 or to the isolated FK506-binding domains of FKBP51 and FKBP52 ([…]). Binding to the isolated FK506-binding domains is reliably indicative of binding to the full length proteins. The affinities for the isolated FK506-binding domains and for full-length FKBP51 or FKBP52 are the same for all compounds tested so far (Kozany et al, ChemBioChem 2009, 10, 1402-1410).
(§2) Example 11: Fluorescence Polarization (FP) Assays
(§3) In-vitro fluorescence polarization assays were performed to determine the binding affinities for FKBP51 and 52 according to a literature procedure (Kozany, C.; Marz, A.; Kress, C.; Hausch, F., Fluorescent probes to characterise FK506-binding proteins. Chembiochem 2009, 10, (8), 1402-10).
(§4) For fluorescence polarization assays the fluorescent ligand 2b was dissolved in HEPES (20 mm, pH 8), Triton-X100 (0.01%), at double the concentration required for the final sample. The target protein was also diluted in this assay buffer at double the highest concentration required for the final sample. This protein stock was used for a 1:1 serial dilution.
(§5) The fluorescent ligand 2b was diluted in assay buffer to a concentration double the final concentration (20 nM 2b). The inventive compound was dissolved in DMSO to reach a 100-times concentrated stock solution. This was used for a 1:1 serial dilution in DMSO. Every sample of this serial dilution was diluted by a factor of 50 in assay buffer supplemented with ligand 2b to achieve a 2× concentrated mixture of ligand 2b and the inventive compound. To this competitive ligand double the protein concentration for 2b assay: FKBP51FK1 560 nM (2×280 nM) or FKBP52FK1 800 nM (2×400 nM) diluted in assay buffer was added.
(§6) The samples were transferred to black 384-well assay plates (No.: 3575; Corning Life Sciences). After incubation at room temperature for 30 min the fluorescence anisotropy was measured (GENios Pro, Tecan, Männedorf, Switzerland) by using an excitation filters of 485/20 nm and emission filters of 535/25 nm. The binding assays were performed in duplicates in the plate format.
(§7) The competition curves were analyzed by using SigmaPlot9. Data were fitted to a four parameter logistic curve to deduce the IC50 values. For the analysis of K1 values, data were fitted to the following equation (Z. X. Wang, FEBS Lett. 1995, 360, 111-114). A=(Amax−Amin)/[L]t×(([L]t×((2×((Klig+Kcomp+[L]t+[I]t−[R]t)^2−3×(Kcomp×([L]t−[R]t)+Klig×([I]t−[R]t)+[…]))^0.5×COS(ARCCOS((−2×(Klig+Kcomp+[L]t+[I]t−[R]t)^3+9×(Klig+Kcomp+[L]t+[I]t−[R]t)×(Kcomp×([L]t−[R]t)+Klig×([I]t−[R]t)+Klig×Kcomp)−27×(−1×Klig×Kcomp×[R]t))/(2×((((Klig+Kcomp+[L]t+[I]t−[R]t)^2−3×(Kcomp×([L]t−[R]t)+Klig×([I]t−[R]t)+Klig×Kcomp))^3)^0.5)))/3))−(Klig+Kcomp+[L]t+[I]t−[R]t)))/((3×Klig)+((2×((Klig+Kcomp+[L]t+[I]t−[R]t)^2−3×(Kcomp×([L]t−[R]t)+Klig×([I]t−[R]t)+Klig×Kcomp))^0.5×COS(ARCCOS((−2×(Klig+Kcomp+[L]t+[I]t−[R]t)^3+9×(Klig+Kcomp+[L]t+[I]t−[R]t)×(Kcomp×([L]t−[R]t)+Klig×([I]t−[R]t)+Klig×Kcomp)−27×(−1×Klig×Kcomp×[R]t))/(2×((((Klig+Kcomp+[L]t+[I]t−[R]t)^2−3×(Kcomp×([L]t−[R]t)+Klig×([I]t−[R]t)+Klig×Kcomp))^3)^0.5)))/3))−(Klig+Kcomp+[L]t+[I]t−[R]t)))+Amin
(§8) In this equation Klig and Kcomp stand for the Kd values of the used tracer or competing inhibitor, [I]t is referring to the total concentration of the titrated inhibitor.

FKBP52 = molecular target: T2, FKBP52 (Homo sapiens, UniProt Q02790); assay: Fluorescence polarization (FP) assay, binding to the FK506-binding domain of FKBP52; conditions: FK506-binding domain of FKBP52 (FKBP52FK1), competition with fluorescent ligand 2b
T2 sequence (Q02790 50-138 limits assumed): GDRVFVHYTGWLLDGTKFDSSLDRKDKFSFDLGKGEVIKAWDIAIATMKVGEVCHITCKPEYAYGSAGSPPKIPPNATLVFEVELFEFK
Description: as §1, §2, §3, §4, §5, §6, §7, §8

Row | SMILES | Ki (FKBP51) [nM] | Ki (FKBP52) [nM]
1 | C=C[C@@H]1CN(Cc2ccccn2)C(=O)[C@@H]2CCC[C@H]1N2S(=O)(=O)c1cc(Cl)c(O)c(Cl)c1 [Compound K8, (1S,5R,6R)-10-((3,5-dichloro-4-hydroxyphenyl)sulfonyl)-3-(pyridin-2-ylmethyl)-5-vinyl-3,10-diazabicyclo[4.3.1]decan-2-one] | 100 to 500 | 100 to 500
2 | C=CC1CN(Cc2ccccn2)C(=O)C2CCCC1N2S(=O)(=O)c1cc(Br)cc(C(=O)OC)c1 (stereo in doubt) [Compound K24, methyl 3-bromo-5-(((1S,5R,6R)-2-oxo-3-(pyridin-2-ylmethyl)-5-vinyl-3,10-diazabicyclo[4.3.1]decan-10-yl)sulfonyl)benzoate] | ≤ 100 | ≤ 100
3 | COc1ccc(OCCN2C[C@H]([C@H](O)CO)C3CCCC(C2=O)N3S(=O)(=O)c2cc(Cl)cc(Cl)c2)cc1OC (stereo partly drawn) [C2(C2a/b), (1S,5S,6R)-10-((3,5-dichlorophenyl)sulfonyl)-5-(1,2-dihydroxyethyl)-3-(2-(3,4-dimethoxyphenoxy)ethyl)-3, 10-diazabicyclo[4.3.1]decan-2-one] | ≤ 100 | ≤ 100
4 | COC[C@H]1CN(Cc2cnnn2C(=O)c2ccccc2)C(=O)[C@@H]2CCC[C@H]1N2S(=O)(=O)c1cccc(F)c1 [Compound N31, (1S,5S,6R)-3-((1-benzoyl-1H-1,2,3-triazol-5-yl)methyl)-10-((3-fluorophenyl)sulfonyl)-5-(methoxymethyl)-3,10-diazabicyclo[4.3.1]decan-2-one] | 100 to 500 | 100 to 500
5 | C#CCN1C[C@H](COC)[C@H]2CCC[C@@H](C1=O)N2S(=O)(=O)c1cccc(C(N)=O)c1 [Compound N4, 3-(((1S,5S,6R)-5-(methoxymethyl)-2-oxo-3-(prop-2-yn-1-yl)-3,10-diazabicyclo[4.3.1]decan-10-yl)sulfonyl)benzamide] | 100 to 500 | 100 to 500
6 | COc1ccc(OCCN2C[C@H](C(C)O)C3CCCC(C2=O)N3S(=O)(=O)c2cc(Cl)cc(Cl)c2)cc1OC (stereo in doubt) [Compound D6, (1S,5S,6R)-10-((3,5-dichlorophenyl)sulfonyl)-3-(2-(3,4-dimethoxyphenoxy)ethyl)-5-((R)-1-hydroxyethyl)-3,10-diazabicyclo[4.3.1]decan-2-one] | ≤ 100 | ≤ 100
7 | COC[C@H]1CN(Cc2cnn[nH]2)C(=O)[C@@H]2CCC[C@H]1N2S(=O)(=O)c1cccnc1 [Compound N25, (1S,5S,6R)-3-((1H-1,2,3-triazol-5-yl)methyl)-5-(methoxymethyl)-10-(pyridin-3-ylsulfonyl)-3,10-diazabicyclo[4.3.1]decan-2-one] | ≤ 100 | ≤ 100
8 | COCO[C@H]1CNC(=O)[C@@H]2CCC[C@H]1N2S(=O)(=O)c1cc(Cl)cc(Cl)c1 [Compound H2.2, (1S,5S,6R)-10-((3,5-dichlorophenyl)sulfonyl)-5-(methoxymethoxy)-3,10-diazabicyclo[4.3.1]decan-2-one] | 500 to 1000 | 500 to 1000
9 | COCC1CN(Cc2cnnn2-c2ccccc2)C(=O)C2CCCC1N2S(=O)(=O)c1cccc(F)c1 (stereo in doubt) [Compound N29, (1S,5R,6R)-10-((3-fluorophenyl)sulfonyl)-5-(methoxymethyl)-3-((1-phenyl-1H-1,2,3-triazol-5-yl)methyl)-3,10-diazabicyclo[4.3.1]decan-2-one] | 100 to 500 | 100 to 500
10 | C#CCN1C[C@H](COC)[C@H]2CCC[C@@H](C1=O)N2S(=O)(=O)c1ccc(NC(C)=O)c(Cl)c1 [Compound N8, N-(2-chloro-4-(((1S,5S,6R)-5-(methoxymethyl)-2-oxo-3-(prop-2-yn-1-yl)-3,10-diazabicyclo[4.3.1]decan-10-yl)sulfonyl)phenyl)acetamide] | 100 to 500 | 100 to 500
11 | C=C[C@@H]1CN(Cc2ccccn2)C(=O)[C@@H]2CCC[C@H]1N2S(=O)(=O)c1ccc(-c2ccccc2)nc1 [Compound K27, (1S,5R,6R)-10-((6-phenylpyridin-3-yl)sulfonyl)-3-(pyridin-2-ylmethyl)-5-vinyl-3,10-diazabicyclo[4.3.1]decan-2-one] | 100 to 500 | 100 to 500
12 | C=CC1CN(CC(N)=O)C(=O)C2CCCC1N2S(=O)(=O)c1cc(Cl)cc(Cl)c1 (stereo in doubt) [Compound J11, 2-((1S,5R,6R)-10-((3,5-dichlorophenyl)sulfonyl)-2-oxo-5-vinyl-3,10-diazabicyclo[4.3.1]decan-3-yl)acetamide] | 100 to 500 | 100 to 500
13 | C=CC1CN(Cc2ccccn2)C(=O)C2CCCC1N2S(=O)(=O)c1ccc2nc(C)sc2c1 (stereo in doubt) [Compound K6, (1S,5R,6R)-10-((2-methylbenzo[d]thiazol-6-yl)sulfonyl)-3-(pyridin-2-ylmethyl)-5-vinyl-3,10-diazabicyclo[4.3.1]decan-2-one] | ≤ 100 | ≤ 100
14 | COCCN1C[C@H](C=O)[C@H]2CCC[C@@H](C1=O)N2S(=O)(=O)c1cc(Cl)cc(Cl)c1 [Compound B9, (1S,5S,6R)-10-((3,5-dichlorophenyl)sulfonyl)-3-(2-methoxyethyl)-2-oxo-3,10-diazabicyclo[4.3.1]decane-5-carbaldehyde] | 100 to 500 | 100 to 500
15 | O=C1[C@@H]2CCC[C@H]([C@H](CO)CN1CCCO)N2S(=O)(=O)c1cc(Cl)cc(Cl)c1 [Compound J5, (1S,5R,6R)-10-((3,5-dichlorophenyl)sulfonyl)-5-(hydroxymethyl)-3-(3-hydroxypropyl)-3,10-diazabicyclo[4.3.1]decan-2-one] | 500 to 1000 | 500 to 1000
16 | C#CCN1C[C@H](COC)[C@H]2CCC[C@@H](C1=O)N2S(=O)(=O)c1cc(Br)cc(C(N)=O)c1 [Compound N5, 3-bromo-5-(((1S,5S,6R)-5-(methoxymethyl)-2-oxo-3-(prop-2-yn-1-yl)-3,10-diazabicyclo[4.3.1]decan-10-yl)sulfonyl)benzamide] | 100 to 500 | 100 to 500
17 | C#CCN1C[C@H](COC)[C@H]2CCC[C@@H](C1=O)N2S(=O)(=O)c1cc(Cl)c(NC(C)=O)c(Cl)c1 [Compound N9, N-(2,6-dichloro-4-(((1S,5S,6R)-5-(methoxymethyl)-2-oxo-3-(prop-2-yn-1-yl)-3,10-diazabicyclo[4.3.1]decan-10-yl)sulfonyl)phenyl)acetamide] | 100 to 500 | 100 to 500
18 | C=CC1CN(CC#N)C(=O)C2CCCC1N2S(=O)(=O)c1cc(Cl)cc(Cl)c1 (stereo in doubt) [Compound J16, 2-((1S,5R,6R)-10-((3,5-dichlorophenyl)sulfonyl)-2-oxo-5-vinyl-3,10-diazabicyclo[4.3.1]decan-3-yl)acetonitrile] | 100 to 500 | 100 to 500
19 | C#CCN1C[C@H](COC)[C@H]2CCC[C@@H](C1=O)N2S(=O)(=O)c1nc2ccccc2[nH]1 [Compound N16, (1S,5S,6R)-10-((1H-benzo[d]imidazol-2-yl)sulfonyl)-5-(methoxymethyl)-3-(prop-2-yn-1-yl)-3,10-diazabicyclo[4.3.1]decan-2-one] | 100 to 500 | 100 to 500
